Patent US9278974B2, “Substituted pyrazolo[3,4-d]pyrimidine compounds, their preparation and use as sigma receptors ligands” (LABORATORIOS DEL DR. ESTEVE S.A., priority 2012, dated 2016)
Counter-ions that a name gives are not always drawn.

Target: T1, sigma-1 receptor (Cavia porcellus, UniProt Q60492)
T1 construct: Guinea pig brains were homogenized in 10 vols; (w/v) of Tris-HCl 50 mM 0.32 M sucrose, pH 7.4; from tissue; host or cells: guinea pig brain membranes
Test: Sigma-1 receptor binding assay, [3H]-(+)-pentazocine, guinea pig brain membranes
Settings: radioligand [3H]-(+)-pentazocine 5.0 nM, 150 min at 37° C., nonspecific binding with 1 μM haloperidol
Description: Brain membrane preparation and binding assays for the […] were performed as described (DeHaven-Hudkins, D. L., L. C. Fleissner, and F. Y. Ford-Rice, 1992, Characterization of the binding of [^3H](+)pentazocine to α recognition sites in guinea pig brain, Eur. J. Pharmacol. 227, 371-378) with some modifications. Guinea pig brains were homogenized in 10 vols. (w/v) of Tris-HCl 50 mM 0.32 M sucrose, pH 7.4, with a Kinematica Polytron PT 3000 at 15000 r.p.m. for 30 s. The homogenate was centrifuged at 1000 g for 10 min at 4° C. and the supernatants collected and centrifuged again at 48000 g for 15 min at 4° C. The pellet was resuspended in 10 volumes of Tris-HCl buffer (50 mM, pH 7.4), incubated at 37° C. for 30 min, and centrifuged at 48000 g for 20 min at 4° C. Following this, the pellet was re-suspended in fresh Tris-HCl buffer (50 mM, pH 7.4) and stored on ice until use.
The radioligand used was [^3H]-(+)-pentazocine at 5.0 nM and the final volume was 200 μl. The incubation was initiated with the addition of 100 μl of membrane at a final tissue concentration of approximately 5 mg tissue net weight/mL and the incubation time was 150 m. at 37° C. After incubation, the membranes were collected onto pretreated glass fiber filterplate (MultiScreen-FC, Millipore), with polyethylenimine 0.1%. The filters were washed two times with 200 μl of washing buffer (50 mM Tris Cl, pH=7.4) and then 25 μl of Ecoscint H liquid scintillation cocktail were added. Microplates were allowed to set for several hours and then quantified by liquid scintillation spectrophotometry (1450 Microbeta, Wallac). Nonspecific binding was determined with 1 μM haloperidol.

T1 sequence (Q60492 whole entry): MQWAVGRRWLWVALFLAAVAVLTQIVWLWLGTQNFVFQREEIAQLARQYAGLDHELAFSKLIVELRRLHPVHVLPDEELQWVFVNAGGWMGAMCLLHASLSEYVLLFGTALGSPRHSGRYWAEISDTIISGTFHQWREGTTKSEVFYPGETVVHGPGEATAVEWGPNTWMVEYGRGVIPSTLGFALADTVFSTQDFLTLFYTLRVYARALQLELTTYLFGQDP

Row | Ki | Compound
1 | 0.0825 µM | Cc1cccc(-c2ncnc3c2cnn3CCN2CCCCC2)c1 [Example 3, 1-(2-(piperidin-1-yl)ethyl)-4-m-tolyl-1H-pyrazolo[3,4-d]pyrimidine hydrochloride]
2 | 0.112 µM | Fc1cc(Cl)ccc1-c1ncnc2c1cnn2CCN1CCCCC1 [Example 46, 4-(4-chloro-2-fluorophenyl)-1-(2-(piperidin-1-yl)ethyl)-1H-pyrazolo[3,4-d]pyrimidine]
3 | 0.0757 µM | Clc1ccccc1-c1ncnc2c1cnn2CCN1CCCCC1 [Example 35, 4-(2-chlorophenyl)-1-(2-(piperidin-1-yl)ethyl)-1H-pyrazolo[3,4-d]pyrimidine]
4 | 0.0484 µM | Cc1cc(F)ccc1-c1ncnc2c1cnn2CCN1CCCCC1 [Example 29, 4-(4-fluoro-2-methylphenyl)-1-(2-(piperidin-1-yl)ethyl)-1H-pyrazolo[3,4-d]pyrimidine]
5 | 0.0766 µM | CN(CCn1ncc2c(-c3ccccc3Cl)ncnc21)Cc1ccc(F)cc1 [Example 47, 2-(4-(2-chlorophenyl)-1H-pyrazolo[3,4-d]pyrimidin-1-yl)-N-(4-fluorobenzyl)-N-methylethanamine]
6 | 0.0315 µM | Cn1cccc1-c1ncnc2c1cnn2CCN1CCCCC1 [Example 27, 4-(1-methyl-1H-pyrrol-2-yl)-1-(2-(piperidin-1-yl)ethyl)-1H-pyrazolo[3,4-d]pyrimidine]
7 | 0.0426 µM | Clc1ccc(-c2ncnc3c2cnn3CCN2CCCCC2)cc1 [Example 21, 4-(4-chlorophenyl)-1-(2-(piperidin-1-yl)ethyl)-1H-pyrazolo[3,4-d]pyrimidine]
8 | 0.318 µM | Fc1ccc(-c2ncnc3c2cnn3CCN2CCC(F)(F)CC2)c(Cl)c1 [Example 44, 4-(2-chloro-4-fluorophenyl)-1-(2-(4,4-difluoropiperidin-1-yl)ethyl)-1H-pyrazolo[3,4-d]pyrimidine]
9 | 0.125 µM | FC(F)(F)c1ccccc1-c1ncnc2c1cnn2CCN1CCCCC1 [Example 38, 1-(2-(piperidin-1-yl)ethyl)-4-(2-(trifluoromethyl)phenyl)-1H-pyrazolo[3,4-d]pyrimidine]
10 | 0.3 µM | CCOc1ccccc1-c1ncnc2c1cnn2CCN1CCCCC1 [Example 13, 4-(2-ethoxyphenyl)-1-(2-(piperidin-1-yl)ethyl)-1H-pyrazolo[3,4-d]pyrimidine hydrochloride]
11 | 0.447 µM | Cc1cncc(-c2ncnc3c2cnn3CCN2CCCCC2)c1 [Example 18, 4-(5-methylpyridin-3-yl)-1-(2-(piperidin-1-yl)ethyl)-1H-pyrazolo[3,4-d]pyrimidine]
12 | 0.0341 µM | CN(CCn1ncc2c(-c3ccnn3C)ncnc21)Cc1ccc(F)cc1 [Example 48, N-(4-fluorobenzyl)-N-methyl-2-(4-(1-methyl-1H-pyrazol-5-yl)-1H-pyrazolo[3,4-d]pyrimidin-1-yl)ethanamine]
13 | 0.0554 µM | Cc1ccc(C)c(-c2ncnc3c2cnn3CCN2CCCCC2)c1 [Example 26, 4-(2,5-dimethylphenyl)-1-(2-(piperidin-1-yl)ethyl)-1H-pyrazolo[3,4-d]pyrimidine]
14 | 0.057 µM | Fc1ccc(-c2ncnc3c2cnn3CCN2CCCCC2)c(C(F)(F)F)c1 [Example 34, 4-(4-fluoro-2-(trifluoromethyl)phenyl)-1-(2-(piperidin-1-yl)ethyl)-1H-pyrazolo[3,4-d]pyrimidine]
15 | 0.027 µM | Fc1ccc(-c2ncnc3c2cnn3CCN2CCCCC2)c(Cl)c1 [Example 42, 4-(2-chloro-4-fluorophenyl)-1-(2-(piperidin-1-yl)ethyl)-1H-pyrazolo[3,4-d]pyrimidine]
16 | 0.475 µM | c1nc(-c2cnsc2)c2cnn(CCN3CCCCC3)c2n1 [Example 36, 4-(1-(2-(piperidin-1-yl)ethyl)-1H-pyrazolo[3,4-d]pyrimidin-4-yl)isothiazole]
17 | 0.0617 µM | CN(CCn1ncc2c(-c3ccc(F)cc3Cl)ncnc21)Cc1ccc(F)cc1 [Example 49, 2-(4-(2-chloro-4-fluorophenyl)-1H-pyrazolo[3,4-d]pyrimidin-1-yl)-N-(4-fluorobenzyl)-N-methylethanamine]
18 | 0.0954 µM | Fc1ccc(-c2ncnc3c2cnn3CCN2CCCCC2)cc1 [Example 14, 4-(4-fluorophenyl)-1-(2-(piperidin-1-yl)ethyl)-1H-pyrazolo[3,4-d]pyrimidine]
19 | 0.0816 µM | Fc1ccc(-c2ncnc3c2cnn3CCN2CCCCC2)c(F)c1 [Example 39, 4-(2,4-difluorophenyl)-1-(2-(piperidin-1-yl)ethyl)-1H-pyrazolo[3,4-d]pyrimidine]

Row | Compound | Ki
20 | Cc1noc(C)c1-c1ncnc2c1cnn2CCN1CCCCC1 [Example 6, 3,5-dimethyl-4-(1-(2-(piperidin-1-yl)ethyl)-1H-pyrazolo[3,4-d]pyrimidin-4-yl)isoxazole hydrochloride] | 0.0724 µM
21 | Clc1ccc(-c2ncnc3c2cnn3CCN2CCCCC2)s1 [Example 20, 4-(5-chlorothiophen-2-yl)-1-(2-(piperidin-1-yl)ethyl)-1H-pyrazolo[3,4-d]pyrimidine] | 0.035 µM
22 | COc1ncccc1-c1ncnc2c1cnn2CCN1CCCCC1 [Example 10, 4-(2-methoxypyridin-3-yl)-1-(2-(piperidin-1-yl)ethyl)-1H-pyrazolo[3,4-d]pyrimidine] | 0.112 µM
23 | Cc1ccc(Cl)c(-c2ncnc3c2cnn3CCN2CCCCC2)c1 [Example 25, 4-(2-chloro-5-methylphenyl)-1-(2-(piperidin-1-yl)ethyl)-1H-pyrazolo[3,4-d]pyrimidine] | 0.0312 µM
24 | c1ccc(-c2ncnc3c2cnn3CCN2CCCCC2)cc1 [Example 1, 4-phenyl-1-(2-(piperidin-1-yl)ethyl)-1H-pyrazolo[3,4-d]pyrimidine] | 0.0996 µM
25 | Cc1ccccc1-c1ncnc2c1cnn2CCN1CCCCC1 [Example 2, 1-(2-(piperidin-1-yl)ethyl)-4-o-tolyl-1H-pyrazolo[3,4-d]pyrimidine] | 0.0738 µM
26 | Cn1nc(C(F)(F)F)cc1-c1ncnc2c1cnn2CCN1CCCCC1 [Example 16, 4-(1-methyl-3-(trifluoromethyl)-1H-pyrazol-5-yl)-1-(2-(piperidin-1-yl)ethyl)-1H-pyrazolo[3,4-d]pyrimidine] | 0.137 µM
27 | COc1cc(F)ccc1-c1ncnc2c1cnn2CCN1CCCCC1 [Example 28, 4-(4-fluoro-2-methoxyphenyl)-1-(2-(piperidin-1-yl)ethyl)-1H-pyrazolo[3,4-d]pyrimidine] | 0.0392 µM
28 | COc1ncccc1-c1ncnc2c1cnn2CCN1CCCCC1 [Example 11, 4-(2-methoxypyridin-3-yl)-1-(2-(piperidin-1-yl)ethyl)-1H-pyrazolo[3,4-d]pyrimidine (L)-tartrate] | 0.151 µM
